{
  "source": "patent US20240398849A1",
  "about": "“METHODS FOR THE TREATMENT OF […] WITH CYCLODEXTRINS” (BEREN THERAPEUTICS P.B.C., priority 2022, published 2024)",
  "key": {"[1]": {"test_system": "volunteers", "assay": "Separate placebo-controlled study: change in triglyceride levels from baseline in volunteers (FIG. 3B-3D)", "assay_type": "in vivo, humans", "conditions": "intravenous 500, 1000 or 1500 mg/kg", "method": "In a separate study, volunteers were divided into four groups. Each group was administered an intravenous dose of placebo or an intravenous dose of 500 mg/kg, 1000 mg/kg or 1500 mg/kg of HPBCD as shown in FIG. 3B. Blood samples were taken immediately prior to injection to establish a baseline triglyceride concentration, and at 24 hours (left bar) and 48 hours (right bar) post injection. Triglyceride levels are presented as the median average percentage change from baseline. […] The data in FIG. 3B were divided into two groups for further analysis. Group 1 consisted of the portion of the cohort which had baseline triglyceride levels greater than 100 mg/dL. Group 2 had baseline triglyceride levels less than or equal to 100 mg/dL. The average percentage change of triglyceride levels from baseline of Group 1 and Group 2 is shown in FIG. 3C and FIG. 3D respectively. […] This is consistent with the marked reduction (˜30%) in triglyceride levels observed for the one participant in FIG. 3A with a baseline triglyceride level of approximately 425 mg/dL."}, "[2]": {"test_system": "LDL receptor deficient (LDLR−/−) mice", "assay": "Serum triglyceride levels in LDLR−/− mouse model after 2 g/kg HPBCD", "assay_type": "in vivo", "from_the_text": "LDL receptor deficient (LDLR^−/−) mice were divided into 6 Groups. Prior to the administration of 2 g/kg of HPBCD, Group 1 was fed with normal chow diet (NC) for 5 weeks and Group 2-Group 6 were fed with high-fat (42%), high-cholesterol (1.2%) Western diet (WD) for various durations up to 9 weeks. Experimental scheme and diet schedule is described in FIG. 1A. Mice of Group 1 were further categorized into 3 sub-Groups (e.g., Group 1.1, Group 1.2, and Group 1.3) according to the administration of HPBCD as shown in FIG. 1B. Blood samples were taken from the mouse models, after 5 weeks of feeding and at a certain period of time (e.g., 1 week, 2 weeks, 3 weeks, 4 weeks after 2 g/kg HPBCD treatment), for measurement of triglyceride levels in each model Group. […] (FIG. 2A)."}, "[3]": {"test_system": "volunteers", "assay": "Triglyceride levels in volunteers after a single intravenous dose of HPBCD (FIG. 3A)", "assay_type": "in vivo, humans", "method": "Twenty-nine volunteers were divided into five groups. Each group was administered an intravenous dose of 50 mg/kg, 250 mg/kg, 500 mg/kg, 1000 mg/kg or 1500 mg/kg of HPBCD as shown in FIG. 3A. Blood samples were taken immediately prior to injection to establish a baseline triglyceride concentration, and at 24 hours (D2) and 48 hours (D3) post injection for measurement of triglyceride levels. […] Overall, triglyceride levels of participants decreased, particularly evident in participants with higher baseline triglyceride concentrations."}},
  "data": [
    {"compound": "CC(O)COC[C@H]1O[C@@H]2O[C@H]3[C@H](O)[C@@H](O)[C@@H](O[C@H]4[C@H](O)[C@@H](O)[C@@H](O[C@H]5[C@H](O)[C@@H](O)[C@@H](O[C@H]6[C@H](O)[C@@H](O)[C@@H](O[C@H]7[C@H](O)[C@@H](O)[C@@H](O[C@H]8[C@H](O)[C@@H](O)[C@@H](O[C@H]1[C@H](O)[C@H]2O)O[C@@H]8COCC(C)O)O[C@@H]7COCC(C)O)O[C@@H]6COCC(C)O)O[C@@H]5COCC(C)O)O[C@@H]4COCC(C)O)O[C@@H]3COCC(C)O", "note": "(stereo partly drawn) [HPBCD, 2-hydroxypropyl-beta-cyclodextrin]", "values": [
      {"measurement": "reduction in triglyceride levels, Group 1 (baseline >100 mg/dL) versus Group 2 (baseline ≤100 mg/dL)", "setting": "[1]; 24 h and 48 h, FIG. 3C and 3D", "value": "greater reduction in triglyceride levels was observed in participants in Group 1 than those in Group 2"},
      {"measurement": "triglyceride levels, median average percentage change from baseline", "setting": "[1]; 24 h and 48 h post injection, any tested dose, FIG. 3B", "value": "did not increase"},
      {"measurement": "triglyceride levels of WD-fed mice after the administration of HPBCD", "setting": "[2]; Western diet (WD), blood sampled 1-4 weeks after treatment, FIG. 2A", "value": "decreased over time"},
      {"measurement": "triglyceride level of NC-fed mice after the administration of HPBCD", "setting": "[2]; normal chow diet (NC), FIG. 2B", "value": "decreased from 24 hours after the administration"},
      {"measurement": "reduction in triglyceride levels", "setting": "[3]; one participant in FIG. 3A with baseline triglyceride level of approximately 425 mg/dL", "value": "~30", "unit": "%"},
      {"measurement": "triglyceride levels following administration (safety)", "setting": "[3]; volunteers, intravenous 50, 250, 500, 1000 or 1500 mg/kg, 24 h and 48 h post injection, any tested dose, FIG. 3A", "value": "did not significantly increase"},
      {"measurement": "triglyceride levels of participants overall", "setting": "[3]; volunteers, intravenous 50-1500 mg/kg, 24 h and 48 h post injection, particularly evident with higher baseline triglyceride", "value": "decreased"}
    ]}
  ]
}
